We go through 25 compounds from PubChem BioAssay (NCI).

Holding throughout (assay): NCI tumour cell line growth inhibition, 48 h
Experiment [1] deals with DMS 273 small cell lung.
Experiment [2] relates to KM20L2 colon.
For experiment [3], the system named is LXFL 529 NSCLC.
Experiment [4] relates to XF 498 CNS.
Experiment [5] deals with DMS 114 small cell lung.
Experiment [6] deals with HOP-18 NSCLC.
Experiment [7] deals with SNB-78 CNS.
Experiment [8] deals with RXF-631 renal.
The test system of experiment [9] is MDA-N.

Molecules are shown by their SMILES.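 Assay format: 96-well plates, 48-hour exposure. TGI denotes the concentration required for complete inhibition of growth.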

Turning to `C#CC1(O)CCC2C3CCc4cc(Oc5nc(F)nc(-c6c7ccccc7c7sc8ccccc8n67)n5)ccc4C3CC[C@@]21C` (stereo partly specified), the TGI in experiment [1], in experiment [2], in experiment [3] and in experiment [4] was above 100 µM in each case.

On to `CCN1c2ccccc2C(C(SC)S(=O)(=O)c2ccc(C)cc2)c2c1[nH]c(=O)n(C)c2=O` (stereo unspecified), for which the TGI in experiment [5], in [1], in [6], in [3], in experiment [7] and in [4] was above 100 µM each time.

With `C/C(=N\NC(=S)NC(CCC(=O)O)C(=O)O)c1ccccn1` (stereo unspecified), the TGI in experiment [5], in experiment [6], in [2], in experiment [3], in experiment [8] and in experiment [7] was above 100 µM in each case. In addition, the TGI in experiment [4] is above 100 µM.

`Cc1ccccc1S(=O)(=O)OC1NS(=O)(=O)c2ccccc21` (stereo unspecified) registered a TGI in experiment [9] above 100 µM.

In the case of `CCOC(=O)NC(=O)c1cn(CCCO)c(=O)[nH]c1=O`, the TGI in [5], in [1], in [6], in experiment [2], in experiment [8] and in [7] was above 100 µM throughout. In [4], this compound registered a TGI above 100 µM.

With `CCN(CC)/C(SCc1ccccc1)=C(\C(Cl)=C(Cl)Cl)[N+](=O)[O-]`, the TGI in experiment [9] was 33.8 µM.

For `CC1=CC(O)(c2ccc(-c3ccccc3Cl)cc2)OC1=O` (stereo unspecified), the TGI in [5], in experiment [1], in experiment [6], in experiment [2], in experiment [3] and in experiment [8] was above 100 µM each time.

As to `COc1cc(OC)cc(-c2cc(=O)c3c(OC)c(OC)c(OC)c(OC)c3o2)c1`, the TGI in experiment [9] is above 100 µM.

For the compound `CC(=O)OC1=CC(n2cc(F)c(=O)[nH]c2=O)OC(C)C1=O` (stereo unspecified), the TGI in experiment [5], in experiment [1], in experiment [6], in [3], in [9] and in experiment [7] was above 100 µM each time. The compound also had a TGI in experiment [4] above 100 µM.

On to `N#CC(C#N)=CNC(N)=S`, for which the TGI in [9] was above 100 µM.

Turning to `NS(=O)(=O)c1cc(Br)c(N=Nc2ccc(O)c3ncccc23)c(Br)c1`, the TGI in [9] is above 100 µM.

For the compound `CC1(C)C2CCC(=O)C1CC2` (stereo unspecified), the TGI in experiment [9] is above 100 µM.

Consider `OCc1ccc(-c2ccc(-c3ccc(CO)s3)o2)s1`, for which the TGI in experiment [5] was above 100 µM; in [1], above 49.5 µM; in [6], 32.6 µM; in [2], 1.19 µM; in experiment [3], 0.0435 µM; in [9] it was 39.6 µM. Further, the TGI in [4] stood at 0.356 µM.

The compound `COC1=CC(=O)C(C2CC(=O)c3c(O)cc(O)cc3O2)=CC1=O` (stereo unspecified) registered a TGI in experiment [9] of 29.7 µM.

`C[Si](C)(C)C1(Sc2ccccc2)SCCCS1`: the TGI in experiment [5], in experiment [1], in experiment [3], in experiment [7] and in experiment [4] was above 100 µM in each case.

Take `Clc1ccc(C(c2ccc(Cl)cc2)c2ccccn2)cc1`: the TGI in experiment [5] is above 100 µM; in experiment [6] it was 46.6 µM; in experiment [2], 29.8 µM; in [3], 35.3 µM; in experiment [7] it was above 100 µM; in experiment [4], 34.8 µM.

Compound `CC(C)C(C)/C=C\C(C)C1CCC2C3=CC=C4CC(O)CCC4(C)C3CCC21C` (stereo unspecified) gave a TGI in experiment [9] above 70.5 µM.

As to `CSc1nc(NC2OCC(OC(C)=O)C(OC(C)=O)C2OC(C)=O)c(N=CC=Nc2c(NC3OCC(OC(C)=O)C(OC(C)=O)C3OC(C)=O)nc(SC)[nH]c2=O)c(=O)[nH]1` (stereo unspecified), the TGI in [5], in experiment [1], in experiment [6], in experiment [2], in experiment [3] and in experiment [9] was above 100 µM each time. For the same compound, the TGI in experiment [8] and in experiment [7] was above 100 µM each time.

For the compound `Cc1cc(O)c(/C=N/C(=S)NCc2ccccc2)c(=O)o1`, the TGI in experiment [9] is above 100 µM.

For `Brc1ccccc1C1SCc2nc3ccccc3n21` (stereo unspecified), the TGI in experiment [5] came to 94.4 µM; in [3], 77.9 µM; in [7], 83.7 µM.

As to `CCOC(=O)c1cc2nc3ccccc3c(=O)n2c2ccccc12`, the TGI in [9] was above 10 µM.

On to `CC(C)(C)OC(=O)N[C@H]1CC2(C=C(Cl)C(=O)C(Cl)=C2)OC1=O`, for which the TGI came to 32.9 µM in experiment [1]; 30.4 µM in experiment [6]; 39.4 µM in experiment [2]; 23.8 µM in experiment [3]; 35.5 µM in experiment [9]; 30.5 µM in experiment [8]. Besides, the TGI came out at 40 µM in experiment [7] and 34.5 µM in experiment [4].

Regarding `O=C(/C=C\c1ccc(Cl)c(Cl)c1)c1ccc(Cl)cc1Cl`, the TGI in [1] is 34.8 µM; in [2] it was 28 µM; in [3], 21.2 µM; in experiment [8], above 100 µM.

`CCOC(=O)CC(=O)ON(C)C(C)=O`: the TGI in [5], in experiment [2], in experiment [3], in experiment [7] and in [4] was above 100 µM in each case.

Consider `CC(C)=Cc1cc(C(=O)Nc2ccc(Cl)c(Cl)c2)nc(N)n1`, for which the TGI in experiment [5], in experiment [1], in experiment [6], in experiment [2], in experiment [3] and in experiment [8] was above 100 µM each time. Also, the TGI in experiment [7] and in experiment [4] was above 100 µM each time.
